Measured values as given in patent publication US20210169856A1, “FORMULATIONS COMPRISING DOPAMINE-B-HYDROXYLASE INHIBITORS AND METHODS FOR THEIR PREPARATION” (BIAL - PORTELA & CA, S.A., priority 2018, published 2021).

Experiment: Solubility of Compound X, Ph. Eur. 6 / USP 33 descriptive terms
Assay type: physicochemical
From the text: In this specification, we are adopting the definitions of solubility from the classification in the European Pharmacopeia 6th Edition and the United States Pharmacopeia 33 (Reference Tables: Description and Solubility):
Further increase in pH results in solubility decrease. […] The pH-dependent solubility profile of Compound X presents certain challenges to the development of pharmaceutical formulations, namely for its dissolution.

Solubility (N,N-methylpyrrolidone): sparingly soluble
Solubility (acetone): slightly soluble
Solubility (acetonitrile): very slightly soluble
Solubility (acidified acetonitrile): sparingly soluble
Solubility (acidified methanol): sparingly soluble
Solubility (acidified water (pH 1.2-2.0)): sparingly soluble
Medium of maximum solubility (aqueous medium): HCl 0.01 (pH 2.0)
pH dependence of solubility in aqueous medium (aqueous medium): decreases as the pH increases
Solubility (chloroform): very slightly soluble
Solubility (cyclohexane): insoluble
Solubility (dichloromethane): slightly soluble
Solubility (dimethyl sulfoxide): sparingly soluble
Solubility (dimethylformamide): sparingly soluble
Solubility (ethanol): practically insoluble
Solubility (ethyl acetate): very slightly soluble
Solubility (iso-octane): insoluble
Solubility (isopropanol): insoluble
Solubility (isopropyl acetate): very slightly soluble
Solubility (methanol): very slightly soluble
Solubility (methyl ethyl ketone): slightly soluble
Solubility (tetrahydrofuran): sparingly soluble
Solubility (toluene): very slightly soluble
Solubility (water): insoluble
SMILES: Fc1cc(F)c2c(c1)C[C@@H](n1c(CCNCc3ccccc3)c[nH]c1=S)CO2 [Compound X]
